Source: US20180333418A1, “USE OF PAN FGFR INHIBITORS AND METHOD OF IDENTIFYING PATIENTS WITH CANCER ELIGIBLE FOR TREATMENT WITH A PAN FGFR INHIBITOR” (BAYER PHARMA AKTIENGESELLSCHAFT, priority 2014, published 2018)

Assays:
[1] = tested on: SNU16 gastric tumor model; experiment: SNU16 xenograft in vivo efficacy; parameters: species or system nu/nu mice; details: tumor weight reduction
Description: (§1) For all other tumors as listed in table 2 & 3 the experiments were carried out in an analogous way as described above.

H716 colon tumor model = experiment: H716 xenograft in vivo efficacy; parameters: species or system nu/nu mice; details: tumor weight reduction
Description: as §1

[2] = tested on: ES204 esophagus squamous cell carcinoma; experiment: ES204 patient-derived xenograft study; format: in vivo, nu/nu mice
Description: Female, 6-8 weeks old immunocompromised nu/nu mice (18-24 g) from Vital River (China) were used for the patient-derived ES204 esophagus squamous cell carcinoma study.
Experiment was initiated after a minimal acclimatization period of 6 days. Mice were kept in a 12 hours light/dark cycle, food and water was available ad libitum and housing temperature was 20-26° C. All the procedures related to animal handling, care, and the treatment in this study were performed according to the guidelines approved by the Institutional Animal Care and Use Committee (IACUC) of CrownBio following the guidance of the Association for Assessment and Accreditation of Laboratory Animal Care (AAALAC). […]
Tumor fragments from stock mice inoculated with selected primary human esophagus cancer tissues (ES204) were harvested and used for inoculation onto female nu/nu nude mice. […] Tumors were sampled when mice in the control group reached sacrificing criteria, and final tumor weights were measured on day 23 post treatment start.
Tumor size was measured twice weekly in two dimensions using a caliper, and the volume was expressed in mm^3 using the formula: V=0.5a×b^2 where a and b are the long and short diameters of the tumor, respectively. […]
Descriptive statistics for all groups were performed on final tumor areas and tumor weights at day of the necropsy. Statistical analysis was assessed using the SigmaStat software. […]

[3] = tested on: HN9897 Head & Neck squamous cell carcinoma; experiment: HN9897 patient-derived xenograft study; format: in vivo, nu/nu mice
[4] = tested on: RT112 bladder tumor model; experiment: RT112 xenograft in vivo efficacy; parameters: species or system nu/nu mice; details: tumor weight reduction
Description: as §1

[5] = tested on: MFM223 breast tumor model; experiment: MFM223 xenograft in vivo efficacy; parameters: species or system nu/nu mice; details: tumor weight reduction
Description: as §1

[6] = tested on: LXFL1121 lung tumor model; experiment: LXFL1121 xenograft in vivo efficacy; parameters: species or system nu/nu mice; details: tumor weight reduction
Description: as §1

[7] = tested on: MFE280 endometrial tumor model; experiment: MFE280 xenograft in vivo efficacy; parameters: species or system nu/nu mice; details: tumor weight reduction
Description: as §1

OMP2 myeloma tumor model = experiment: OMP2 xenograft in vivo efficacy; parameters: species or system nu/nu mice; details: tumor weight reduction
Description: as §1

HepG2 liver tumor model = experiment: HepG2 xenograft in vivo efficacy; parameters: species or system nu/nu mice; details: tumor weight reduction
Description: as §1

LU299 lung tumor model = experiment: LU299 xenograft in vivo efficacy; parameters: species or system nu/nu mice; details: tumor weight reduction
Description: as §1

LXFE211 lung tumor model = experiment: LXFE211 xenograft in vivo efficacy; parameters: species or system nu/nu mice; details: tumor weight reduction
Description: as §1

LU0697 lung tumor model = experiment: LU0697 xenograft in vivo efficacy; parameters: species or system nu/nu mice; details: tumor weight reduction
Description: as §1

H1703 lung tumor model = experiment: H1703 xenograft in vivo efficacy; parameters: species or system nu/nu mice; details: tumor weight reduction
Description: as §1

[8] = tested on: HN366 head&neck tumor model; experiment: HN366 xenograft in vivo efficacy; parameters: species or system nu/nu mice; details: tumor weight reduction
Description: as §1

[9] = tested on: KYSE-140 esophageal tumor model; experiment: KYSE-140 xenograft in vivo efficacy; parameters: species or system nu/nu mice; details: KYSE-140 esophageal model; tumor weight reduction
Description: as §1

[10] = tested on: LXFA1584 lung tumor model; experiment: LXFA1584 xenograft in vivo efficacy; parameters: species or system nu/nu mice; details: tumor weight reduction
Description: as §1

[11] = tested on: HNXF908 head&neck tumor model; experiment: HNXF908 xenograft in vivo efficacy; parameters: species or system nu/nu mice; details: tumor weight reduction
Description: as §1

DMS114 lung tumor model = experiment: DMS114 xenograft in vivo efficacy; parameters: species or system nu/nu mice; details: tumor weight reduction
Description: as §1

[12] = tested on: A2780 ovarian tumor model; experiment: A2780 xenograft in vivo efficacy; parameters: species or system nu/nu mice; details: tumor weight reduction
Description: as §1

[13] = tested on: FGFR mRNA-positive tumors of cancer patients; experiment: Clinical trial NCT01976741, RECIST CT scan evaluation; format: in vivo; parameters: key to RECIST response after C2 / RECIST response after C5: Stable Disease (SD) according to RECIST; progressive disease (PD); details: 800 mg BID; for % tumor change after C2 / RECIST response after C2: C2 = 6 weeks; for % tumor change after C5 / RECIST response after C5: C5 = 15 weeks

**Q.** How did the in vivo efficacy [1] turn out when COCc1c(-c2cc3cc(C)cc(OC)c3s2)c2c(N)ncnn2c1CN1CCNC(=O)C1 [compound of formula (I)] was run?
**A.** yes (All models in which the tumor weight was reduced upon treatment with compounds of formula (I) by at least 50% were considered to be efficacious in vivo.)

**Q.** What about the in vivo efficacy (H716 colon tumor model) of the same compound?
**A.** yes (All models in which the tumor weight was reduced upon treatment with compounds of formula (I) by at least 50% were considered to be efficacious in vivo.)

**Q.** And the “T/C at day 23 post treatment start” value ([2]; ES204, 50 mg/kg 2QD po, treated mean/vehicle mean tumor volume)?
**A.** 0.1

**Q.** And the in vivo efficacy ([2]; ES204 esophageal model, tumor weight reduction)?
**A.** yes (All models in which the tumor weight was reduced upon treatment with compounds of formula (I) by at least 50% were considered to be efficacious in vivo.)

**Q.** What about the “T/C at day 44 post treatment start” value ([3]; HN9897, 50 mg/kg 2QD po, treated mean/vehicle mean tumor volume) of the same compound?
**A.** 0.08

**Q.** And the in vivo efficacy ([3]; HN9897 head&neck model, tumor weight reduction)?
**A.** yes (All models in which the tumor weight was reduced upon treatment with compounds of formula (I) by at least 50% were considered to be efficacious in vivo.)

**Q.** What about the in vivo efficacy [4] of the same compound?
**A.** yes (All models in which the tumor weight was reduced upon treatment with compounds of formula (I) by at least 50% were considered to be efficacious in vivo.)

**Q.** What about the in vivo efficacy [5] of the same compound?
**A.** yes (All models in which the tumor weight was reduced upon treatment with compounds of formula (I) by at least 50% were considered to be efficacious in vivo.)

**Q.** What about the in vivo efficacy [6] of the same compound?
**A.** yes (All models in which the tumor weight was reduced upon treatment with compounds of formula (I) by at least 50% were considered to be efficacious in vivo.)

**Q.** What about the in vivo efficacy [7] of the same compound?
**A.** yes (All models in which the tumor weight was reduced upon treatment with compounds of formula (I) by at least 50% were considered to be efficacious in vivo.)

**Q.** And the in vivo efficacy (OMP2 myeloma tumor model)?
**A.** no (All models in which the tumor weight was reduced upon treatment with compounds of formula (I) by at least 50% were considered to be efficacious in vivo.)

**Q.** And the in vivo efficacy (HepG2 liver tumor model)?
**A.** no (All models in which the tumor weight was reduced upon treatment with compounds of formula (I) by at least 50% were considered to be efficacious in vivo.)

**Q.** What about the in vivo efficacy (LU299 lung tumor model) of the same compound?
**A.** yes (All models in which the tumor weight was reduced upon treatment with compounds of formula (I) by at least 50% were considered to be efficacious in vivo.)

**Q.** What about the in vivo efficacy (LXFE211 lung tumor model) of the same compound?
**A.** yes (All models in which the tumor weight was reduced upon treatment with compounds of formula (I) by at least 50% were considered to be efficacious in vivo.)

**Q.** And the in vivo efficacy (LU0697 lung tumor model)?
**A.** yes (All models in which the tumor weight was reduced upon treatment with compounds of formula (I) by at least 50% were considered to be efficacious in vivo.)

**Q.** And the in vivo efficacy (H1703 lung tumor model)?
**A.** no (All models in which the tumor weight was reduced upon treatment with compounds of formula (I) by at least 50% were considered to be efficacious in vivo.)

**Q.** And the in vivo efficacy [8]?
**A.** yes (All models in which the tumor weight was reduced upon treatment with compounds of formula (I) by at least 50% were considered to be efficacious in vivo.)

**Q.** And the in vivo efficacy [9]?
**A.** no (All models in which the tumor weight was reduced upon treatment with compounds of formula (I) by at least 50% were considered to be efficacious in vivo.)

**Q.** What about the in vivo efficacy [10] of the same compound?
**A.** no (All models in which the tumor weight was reduced upon treatment with compounds of formula (I) by at least 50% were considered to be efficacious in vivo.)

**Q.** And the in vivo efficacy [11]?
**A.** yes (All models in which the tumor weight was reduced upon treatment with compounds of formula (I) by at least 50% were considered to be efficacious in vivo.)

**Q.** What about the in vivo efficacy (DMS114 lung tumor model) of the same compound?
**A.** yes (All models in which the tumor weight was reduced upon treatment with compounds of formula (I) by at least 50% were considered to be efficacious in vivo.)

**Q.** And the in vivo efficacy [12]?
**A.** yes (All models in which the tumor weight was reduced upon treatment with compounds of formula (I) by at least 50% were considered to be efficacious in vivo.)

**Q.** And the “% tumor change after C2” value ([13]; Pat 100010010, sqNSCLC)?
**A.** 0%

**Q.** What about the “RECIST response after C2” value ([13]; Pat 100010010, sqNSCLC) of the same compound?
**A.** SD

**Q.** What about the “% tumor change after C5” value ([13]; Pat 100010010, sqNSCLC) of the same compound?
**A.** +8%

**Q.** And the “RECIST response after C5” value ([13]; Pat 100010010, sqNSCLC)?
**A.** SD

**Q.** What about the “% tumor change after C2” value ([13]; Pat 100010018, Mesothelioma) of the same compound?
**A.** +14%

**Q.** What about the “RECIST response after C2” value ([13]; Pat 100010018, Mesothelioma) of the same compound?
**A.** SD

**Q.** What about the “% tumor change after C2” value ([13]; Pat 100020012, sqNSCLC) of the same compound?
**A.** −10%

**Q.** What about the “RECIST response after C2” value ([13]; Pat 100020012, sqNSCLC) of the same compound?
**A.** SD

**Q.** And the “% tumor change after C2” value ([13]; Pat 560020029, sqNSCLC)?
**A.** +4%

**Q.** And the “RECIST response after C2” value ([13]; Pat 560020029, sqNSCLC)?
**A.** SD

**Q.** What about the “% tumor change after C5” value ([13]; Pat 560020029, sqNSCLC) of the same compound?
**A.** +5%

**Q.** And the “RECIST response after C5” value ([13]; Pat 560020029, sqNSCLC)?
**A.** SD

**Q.** What about the “% tumor change after C2” value ([13]; Pat 560020064, SCLC) of the same compound?
**A.** −2%

**Q.** And the “RECIST response after C2” value ([13]; Pat 560020064, SCLC)?
**A.** SD

**Q.** And the “% tumor change after C2” value ([13]; Pat 580010012, sqNSCLC)?
**A.** −10%

**Q.** And the “RECIST response after C2” value ([13]; Pat 580010012, sqNSCLC)?
**A.** SD

**Q.** What about the “% tumor change after C5” value ([13]; Pat 580010012, sqNSCLC) of the same compound?
**A.** −10%

**Q.** And the “RECIST response after C5” value ([13]; Pat 580010012, sqNSCLC)?
**A.** SD

**Q.** What about the “% tumor change after C2” value ([13]; Pat 580010016, sqNSCLC) of the same compound?
**A.** −5%

**Q.** And the “RECIST response after C2” value ([13]; Pat 580010016, sqNSCLC)?
**A.** SD

**Q.** And the “% tumor change after C5” value ([13]; Pat 580010016, sqNSCLC)?
**A.** −6%

**Q.** And the “RECIST response after C5” value ([13]; Pat 580010016, sqNSCLC)?
**A.** SD

**Q.** And the “% tumor change after C2” value ([13]; Pat 580010022, Bladder)?
**A.** −3%

**Q.** And the “RECIST response after C2” value ([13]; Pat 580010022, Bladder)?
**A.** SD

**Q.** And the “% tumor change after C5” value ([13]; Pat 580010022, Bladder)?
**A.** −2%

**Q.** And the “RECIST response after C5” value ([13]; Pat 580010022, Bladder)?
**A.** SD

**Q.** What about the “% tumor change after C2” value ([13]; Pat 580010038, Unknown primary) of the same compound?
**A.** +26%

**Q.** And the “RECIST response after C2” value ([13]; Pat 580010038, Unknown primary)?
**A.** PD
